What was measured:
barnyardgrass [1] = assay: Test A preemergence; format: in vivo, Echinochloa crus-galli
How it was run: (§1)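 Scoring: eye-based comparison with untreated controls, 0 for no effect through 100 for complete control, at about day 10. Treatments: directed soil spray preemergence; foliar spray postemergence on 2–10 cm plants at the one- to two-leaf stage. Medium: loam soil with sand.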

large (Lg) crabgrass [2] = assay: Test A preemergence; format: in vivo, Digitaria sanguinalis
How it was run: as §1

giant foxtail [3] = assay: Test A preemergence; format: in vivo, Setaria faberii
How it was run: as §1

morningglory [4] = assay: Test A preemergence; format: in vivo, Ipomoea spp.
How it was run: as §1

pigweed [5] = assay: Test A preemergence; format: in vivo, Amaranthus retroflexus
How it was run: as §1

velvetleaf [6] = assay: Test A preemergence; format: in vivo, Abutilon theophrasti
How it was run: as §1

wheat [7] = assay: Test A preemergence; format: in vivo, Triticum aestivum
How it was run: as §1

corn [8] = assay: Test A preemergence; format: in vivo, Zea mays
How it was run: as §1

barnyardgrass [9] = assay: Test A postemergence; format: in vivo, Echinochloa crus-galli
How it was run: as §1

large (Lg) crabgrass [10] = assay: Test A postemergence; format: in vivo, Digitaria sanguinalis
How it was run: as §1

giant foxtail [11] = assay: Test A postemergence; format: in vivo, Setaria faberii
How it was run: as §1

morningglory [12] = assay: Test A postemergence; format: in vivo, Ipomoea spp.
How it was run: as §1

pigweed [13] = assay: Test A postemergence; format: in vivo, Amaranthus retroflexus
How it was run: as §1

velvetleaf [14] = assay: Test A postemergence; format: in vivo, Abutilon theophrasti
How it was run: as §1

wheat [15] = assay: Test A postemergence; format: in vivo, Triticum aestivum
How it was run: as §1

corn [16] = assay: Test A postemergence; format: in vivo, Zea mays
How it was run: as §1

rice = assay: Test B flooded paddy test; format: in vivo, Oryza sativa; details: Flood, 250 g ai/ha; 0 to 100 scale where 0 is no effect and 100 is complete control
How it was run: (§2)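 Seedlings are raised to two leaves, flooded to a depth of 3 cm and dosed by adding the compound to the floodwater. Water level is kept constant, and plants are scored visually versus controls 13–15 days later (0 = no effect, 100 = complete control).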

sedge, umbrella = assay: Test B flooded paddy test; format: in vivo, Cyperus difformis; details: Flood, 250 g ai/ha; 0 to 100 scale where 0 is no effect and 100 is complete control
How it was run: as §2

Heteranthera limosa = assay: Test B flooded paddy test; format: in vivo; details: Flood, 250 g ai/ha; 0 to 100 scale where 0 is no effect and 100 is complete control
How it was run: as §2

barnyardgrass [17] = assay: Test B flooded paddy test; format: in vivo, Echinochloa crus-galli; details: Flood, 250 g ai/ha; 0 to 100 scale where 0 is no effect and 100 is complete control
How it was run: as §2

[18] = 125 g ai/ha, 0 to 100 scale where 0 is no effect and 100 is complete control
[19] = 500 g ai/ha, 0 to 100 scale, 0 no effect, 100 complete control, approx. 10 days
[20] = 500 g ai/ha, 0 to 100 scale, 0 no effect, 100 complete control

Clc1ccc(-n2cccn2)c(Oc2ncc(Br)cn2)c1 [Compound 50]
40: Crabgrass, Large plant response rating (large (Lg) crabgrass [2]; [19])
10: Plant response rating, Barnyardgrass (barnyardgrass [9]; [20]) | Plant response rating, Crabgrass, Large (large (Lg) crabgrass [10]; [20]) | Plant response rating, Velvetleaf (velvetleaf [14]; [20])
0: Plant response rating, Barnyardgrass (barnyardgrass [1]; [18]) | Barnyardgrass plant response rating (barnyardgrass [1]; [19]) | Plant response rating, Crabgrass, Large (large (Lg) crabgrass [2]; [18]) | Plant response rating, Foxtail, Giant (giant foxtail [3]; [18]) | Foxtail, Giant plant response rating (giant foxtail [3]; [19]) | Plant response rating, Morningglory (morningglory [4]; [18]) | Morningglory plant response rating (morningglory [4]; [19]) | Plant response rating, Pigweed (pigweed [5]; [18]) | Pigweed plant response rating (pigweed [5]; [19]) | Plant response rating, Velvetleaf (velvetleaf [6]; [18]) | Velvetleaf plant response rating (velvetleaf [6]; [19]) | Plant response rating, Wheat (wheat [7]; [18]) | Wheat plant response rating (wheat [7]; [19]) | Plant response rating, Corn (corn [8]; [18]) | Corn plant response rating (corn [8]; [19]) | Plant response rating, Barnyardgrass (barnyardgrass [9]; [18]) | Plant response rating, Crabgrass, Large (large (Lg) crabgrass [10]; [18]) | Plant response rating, Foxtail, Giant (giant foxtail [11]; [18]) | Plant response rating, Foxtail, Giant (giant foxtail [11]; [20]) | Plant response rating, Velvetleaf (velvetleaf [14]; [18]) | Plant response rating, Wheat (wheat [15]; [18]) | Plant response rating, Wheat (wheat [15]; [20]) | Plant response rating, Corn (corn [16]; [18]) | Plant response rating, Corn (corn [16]; [20]) | Plant response rating, Rice (rice) | Plant response rating, Sedge, Umbrella (sedge, umbrella) | Plant response rating, Ducksalad (Heteranthera limosa) | Plant response rating, Barnyardgrass (barnyardgrass [17])
30: Plant response rating, Morningglory (morningglory [12]; [20]) | Plant response rating, Pigweed (pigweed [13]; [20])
20: Plant response rating, Morningglory (morningglory [12]; [18]) | Plant response rating, Pigweed (pigweed [13]; [18])

Cc1cnc(Oc2ccccc2-n2cc(Br)cn2)nc1 [Compound 9]
80: Foxtail, Giant plant response rating (giant foxtail [3]; [18]) | Velvetleaf plant response rating (velvetleaf [6]; [18]) | Plant response rating, Crabgrass, Large (large (Lg) crabgrass [10]; [20]) | Plant response rating, Pigweed (pigweed [13]; [18]) | Plant response rating, Ducksalad (Heteranthera limosa)
60: Plant response rating, Sedge, Umbrella (sedge, umbrella)
20: Corn plant response rating (corn [8]; [19]) | Plant response rating, Morningglory (morningglory [12]; [18]) | Plant response rating, Corn (corn [16]; [18])
0: Morningglory plant response rating (morningglory [4]; [18]) | Morningglory plant response rating (morningglory [4]; [19]) | Wheat plant response rating (wheat [7]; [18]) | Wheat plant response rating (wheat [7]; [19]) | Corn plant response rating (corn [8]; [18]) | Plant response rating, Wheat (wheat [15]; [18]) | Plant response rating, Rice (rice) | Plant response rating, Barnyardgrass (barnyardgrass [17])
30: Barnyardgrass plant response rating (barnyardgrass [1]; [18]) | Plant response rating, Barnyardgrass (barnyardgrass [9]; [18]) | Plant response rating, Crabgrass, Large (large (Lg) crabgrass [10]; [18]) | Plant response rating, Foxtail, Giant (giant foxtail [11]; [18]) | Plant response rating, Morningglory (morningglory [12]; [20]) | Plant response rating, Wheat (wheat [15]; [20])
100: Barnyardgrass plant response rating (barnyardgrass [1]; [19]) | Crabgrass, Large plant response rating (large (Lg) crabgrass [2]; [19]) | Pigweed plant response rating (pigweed [5]; [18]) | Pigweed plant response rating (pigweed [5]; [19]) | Velvetleaf plant response rating (velvetleaf [6]; [19]) | Plant response rating, Velvetleaf (velvetleaf [14]; [18]) | Plant response rating, Velvetleaf (velvetleaf [14]; [20])
90: Crabgrass, Large plant response rating (large (Lg) crabgrass [2]; [18]) | Foxtail, Giant plant response rating (giant foxtail [3]; [19]) | Plant response rating, Barnyardgrass (barnyardgrass [9]; [20]) | Plant response rating, Foxtail, Giant (giant foxtail [11]; [20]) | Plant response rating, Pigweed (pigweed [13]; [20])
50: Plant response rating, Corn (corn [16]; [20])

O=[N+]([O-])c1cccc(Oc2ncc(Cl)cn2)c1-n1cc(Br)cn1 [Compound 63]
70: Barnyardgrass plant response rating (barnyardgrass [1]; [19]) | Plant response rating, Barnyardgrass (barnyardgrass [9]; [20]) | Plant response rating, Pigweed (pigweed [13]; [18])
30: Plant response rating, Barnyardgrass (barnyardgrass [9]; [18]) | Plant response rating, Crabgrass, Large (large (Lg) crabgrass [10]; [18]) | Plant response rating, Morningglory (morningglory [12]; [18]) | Plant response rating, Corn (corn [16]; [20])
80: Plant response rating, Crabgrass, Large (large (Lg) crabgrass [2]; [18]) | Plant response rating, Foxtail, Giant (giant foxtail [11]; [20]) | Plant response rating, Morningglory (morningglory [12]; [20])
90: Plant response rating, Pigweed (pigweed [5]; [18]) | Plant response rating, Crabgrass, Large (large (Lg) crabgrass [10]; [20])
20: Plant response rating, Foxtail, Giant (giant foxtail [3]; [18]) | Velvetleaf plant response rating (velvetleaf [6]; [19]) | Plant response rating, Foxtail, Giant (giant foxtail [11]; [18])
60: Plant response rating, Velvetleaf (velvetleaf [14]; [18])
100: Crabgrass, Large plant response rating (large (Lg) crabgrass [2]; [19]) | Foxtail, Giant plant response rating (giant foxtail [3]; [19]) | Pigweed plant response rating (pigweed [5]; [19]) | Plant response rating, Pigweed (pigweed [13]; [20]) | Plant response rating, Velvetleaf (velvetleaf [14]; [20])
0: Plant response rating, Barnyardgrass (barnyardgrass [1]; [18]) | Plant response rating, Morningglory (morningglory [4]; [18]) | Morningglory plant response rating (morningglory [4]; [19]) | Plant response rating, Velvetleaf (velvetleaf [6]; [18]) | Plant response rating, Wheat (wheat [7]; [18]) | Wheat plant response rating (wheat [7]; [19]) | Plant response rating, Corn (corn [8]; [18]) | Corn plant response rating (corn [8]; [19]) | Plant response rating, Wheat (wheat [15]; [18]) | Plant response rating, Corn (corn [16]; [18]) | Plant response rating, Rice (rice) | Plant response rating, Sedge, Umbrella (sedge, umbrella) | Plant response rating, Ducksalad (Heteranthera limosa) | Plant response rating, Barnyardgrass (barnyardgrass [17])
10: Plant response rating, Wheat (wheat [15]; [20])

Reference: patent US9695155B2, “Herbicidal substituted pyrimidinyloxy benzene compounds” (E. I. DU PONT DE NEMOURS AND COMPANY, priority 2013, dated 2017)
